Experimental data published in ChEMBL document CHEMBL5260813, “An overview on the recent developments of 1,2,4-triazine derivatives as anticancer compounds” (Eur J Med Chem, 2017).

Legend:
[1] = system: KB; assay: Antiproliferative activity against human KB cells assessed as inhibition of cell growth under hypoxia condition; format: functional, cell-based
[2] = Ratio of IC50 for antiproliferative activity against human HL-60 cells assessed as inhibition of cell growth under normoxia condition to IC50 for antiproliferative activity against human HL-60 cells assessed as inhibition of cell growth under hypoxia condition; format: functional
[3] = Ratio of IC50 for antiproliferative activity against human Bel-7402 cells assessed as inhibition of cell growth under normoxia condition to IC50 for antiproliferative activity against human Bel-7402 cells assessed as inhibition of cell growth under hypoxia condition; format: functional
[4] = Ratio of IC50 for antiproliferative activity against human Eca-109 cells assessed as inhibition of cell growth under normoxia condition to IC50 for antiproliferative activity against human Eca-109 cells assessed as inhibition of cell growth under hypoxia condition; format: functional
[5] = Ratio of IC50 for antiproliferative activity against human MCF7 cells assessed as inhibition of cell growth under normoxia condition to IC50 for antiproliferative activity against human MCF7 cells assessed as inhibition of cell growth under hypoxia condition; format: functional
[6] = system: MCF7; assay: Antiproliferative activity against human MCF7 cells assessed as inhibition of cell growth under hypoxic condition by MTT assay; format: functional, cell-based
[7] = system: HCT-116; assay: Antiproliferative activity against human HCT-116 cells assessed as inhibition of cell growth under hypoxic condition by MTT assay; format: functional, cell-based
[8] = system: NCI-H460; assay: Antiproliferative activity against human NCI-H460 cells assessed as inhibition of cell growth under hypoxic condition by MTT assay; format: functional, cell-based
[9] = Ratio of IC50 for antiproliferative activity against human PC-3 cells assessed as inhibition of cell growth under normoxia condition to IC50 for antiproliferative activity against human PC-3 cells assessed as inhibition of cell growth under hypoxia condition; format: functional

Compound	Ratio IC50 [2]	Ratio IC50 [3]	Ratio IC50 [4]	Ratio IC50 [5]	IC50 [6] [µM]	IC50 [7] [µM]	IC50 [8] [µM]	Ratio IC50 [9]	also measured
CCCCCOCNc1n[n+]([O-])c2cc(OC)ccc2[n+]1[O-]									IC50 [1]: 2.51 µM
CCNc1n[n+]([O-])c2cc(Cl)ccc2[n+]1[O-]	5.1	2.4	2.7	3.84					
O=C(NCCCCCNc1n[n+]([O-])c2ccccc2[n+]1[O-])C(F)(F)F					11.7	11.7	11.7		
[O-][n+]1nc(NC2CCCCC2)[n+]([O-])c2ccccc21	4.1	1.1	2.8	1.9				1.5	
CCCCCCNc1n[n+]([O-])c2cc(Cl)ccc2[n+]1[O-]	4	1.6	2.6	2.1				1.4	
COc1ccc2c(c1)[n+]([O-])nc(NC1CCCCC1)[n+]2[O-]	2.2	1.6	2	2.8					
CCCCOCNc1n[n+]([O-])c2ccccc2[n+]1[O-]									IC50 [1]: 2.32 µM
O=C(NCCCCNc1n[n+]([O-])c2ccccc2[n+]1[O-])C(F)(F)F					11.7	11.7	11.7		
O=C(NCCNc1n[n+]([O-])c2ccccc2[n+]1[O-])C(F)(F)F					11.7	11.7	11.7		
O=C(NCCCCCCCCNc1n[n+]([O-])c2ccccc2[n+]1[O-])C(F)(F)F					11.7	11.7	11.7		
CCCOCNc1n[n+]([O-])c2ccccc2[n+]1[O-]									IC50 [1]: 3.74 µM
[O-][n+]1nc(Nc2ccccc2)[n+]([O-])c2ccccc21	2.5	2	4.1	2.1				2.3	
CCCCCCCOCNc1n[n+]([O-])c2ccccc2[n+]1[O-]									IC50 [1]: 3.49 µM
CCCCCOCNc1n[n+]([O-])c2ccccc2[n+]1[O-]									IC50 [1]: 2.9 µM
COc1ccc2c(c1)[n+]([O-])nc(NCC1CCCCC1)[n+]2[O-]	2.4	2	1.3	2.4				1	
Nc1n[n+]([O-])c2ccccc2[n+]1[O-] [TIRAPAZAMINE]	1.1	1.8	6.6	1.7				3.8	
NCCCCNc1n[n+]([O-])c2ccccc2[n+]1[O-]					11.7	11.7	11.7		
NCCCNc1n[n+]([O-])c2ccccc2[n+]1[O-]					11.7	11.7	11.7		
O=C(NCCCCCCCNc1n[n+]([O-])c2ccccc2[n+]1[O-])C(F)(F)F					11.7	11.7	11.7		
[O-][n+]1nc(NCOCc2ccc(Cl)cc2)[n+]([O-])c2ccccc21									IC50 [1]: 2.19 µM
NCCCCCCNc1n[n+]([O-])c2ccccc2[n+]1[O-]					11.7	11.7	11.7		
CCCOCNc1n[n+]([O-])c2cc(OC)ccc2[n+]1[O-]									IC50 [1]: 2.54 µM
CCCCCCNc1n[n+]([O-])c2cc([N+](=O)[O-])ccc2[n+]1[O-]		1.5	1.5					1.6	
CC(OCNc1n[n+]([O-])c2ccccc2[n+]1[O-])c1ccccc1 (centres undefined)									IC50 [1]: 2.81 µM
O=[N+]([O-])c1ccc2c(c1)[n+]([O-])nc(Nc1ccccc1)[n+]2[O-]		1.44	1.47	1.61					

Compound	Ratio IC50 [2]	Ratio IC50 [3]	Ratio IC50 [4]	Ratio IC50 [5]	IC50 [6] [µM]	IC50 [7] [µM]	IC50 [8] [µM]	Ratio IC50 [9]	also measured
O=C(NCCCNc1n[n+]([O-])c2ccccc2[n+]1[O-])C(F)(F)F					11.7	11.7	11.7		
O=[N+]([O-])c1ccc2c(c1)[n+]([O-])nc(NC1CCCCC1)[n+]2[O-]		1.68	1.6					1.07	
[O-][n+]1nc(NCCNc2n[n+]([O-])c3ccccc3[n+]2[O-])nc2ccccc21					11.7	11.7	11.7		
NCCCCCCCCNc1n[n+]([O-])c2ccccc2[n+]1[O-]					11.7	11.7	11.7		
COc1ccc2c(c1)[n+]([O-])nc(NCOCc1ccccc1)[n+]2[O-]									IC50 [1]: 4.47 µM
CCNc1n[n+]([O-])c2cc(C)ccc2[n+]1[O-]	1	1.74	1.4	2.7				2.1	
CCNc1n[n+]([O-])c2cc(OC)ccc2[n+]1[O-]		1.07	1.12					1.2	
CCCCCCNc1n[n+]([O-])c2ccccc2[n+]1[O-]	2.8		1.7	1.3				1.19	
[O-][n+]1nc(NCOC2CCCCC2)[n+]([O-])c2ccccc21									IC50 [1]: 1.2 µM
[O-][n+]1nc(NCc2ccccc2)[n+]([O-])c2ccccc21	4.2	2.8	5.1	1.9				2.3	
CCNc1n[n+]([O-])c2ccccc2[n+]1[O-]	1.6	2.2	5.4	2.1				4.4	
Cc1ccc2c(c1)[n+]([O-])nc(Nc1ccccc1)[n+]2[O-]	1.01	2.07	5.31	2.19				1.2	
O=[N+]([O-])c1ccc2c(c1)[n+]([O-])nc(NCc1ccccc1)[n+]2[O-]	1.09	1.17	1.45	1.2				1.89	
[O-][n+]1nc(NCCCNc2n[n+]([O-])c3ccccc3[n+]2[O-])nc2ccccc21					11.7	11.7	11.7		
CC(C)CCOCNc1n[n+]([O-])c2ccccc2[n+]1[O-]									IC50 [1]: 2.11 µM
Cc1ccc2c(c1)[n+]([O-])nc(NC1CCCCC1)[n+]2[O-]	7.9	1.1	2.5	2				1.2	
Cc1ccc2c(c1)[n+]([O-])nc(NCc1ccccc1)[n+]2[O-]	1.21	2.54	8.77	3.79				2.4	
O=[N+]([O-])c1cccc(COCNc2n[n+]([O-])c3ccccc3[n+]2[O-])c1									IC50 [1]: 3.44 µM
CCCCCCNc1n[n+]([O-])c2cc(C)ccc2[n+]1[O-]	2.9		4.7	1.3				1.3	
[O-][n+]1nc(NCOCc2ccccc2)[n+]([O-])c2ccccc21									IC50 [1]: 4.14 µM
NCCCCCCCNc1n[n+]([O-])c2ccccc2[n+]1[O-]					11.7	11.7	11.7		
NCCCCCNc1n[n+]([O-])c2ccccc2[n+]1[O-]					11.7	11.7	11.7		
O=C(NCCCCCCNc1n[n+]([O-])c2ccccc2[n+]1[O-])C(F)(F)F					11.7	11.7	11.7		
NCCNc1n[n+]([O-])c2ccccc2[n+]1[O-]					11.7	11.7	11.7		
